Data reported in US20100204203A1, “Chemical Compounds 637: Pyridopyrimidinediones as PDE4 Inhibitors” (priority 2007, published 2010).

Molecular target: recombinant Human Phosphodiesterase B2 (PDE4B2) (Homo sapiens, UniProt Q07343)
Test: Human Phosphodiesterase B2 Radiometric Assay (yttrium silicate SPA beads, [3H]cyclic AMP)
Format: biochemical
Settings: recombinant human PDE4B2, radiometric SPA assay, 8 nM [3H]cyclic AMP; read-out: PDE4B2 pIC50 (converted)
Protocol: Human Phosphodiesterase B2 Radiometric Assay
The assay uses recombinant Human Phosphodiesterase B2 (PDE4B2) produced in house (PrAZL0163), stored at −20° C. This assay is based on the observation that 5′AMP, the product of the reaction catalysed by PDE4, binds preferentially to yttrium silicate SPA beads (Amersham Biosciences, UK) compared to the substrate, cAMP. Compounds at the appropriate concentration were preincubated at 30 C for 30 min with an assay buffer containing 50 mM HEPES (pH 7.5), 8.3 mM MgCl2, 1.7 mM EGTA, 0.01% (w/v) Brij° 35 and 0.1 mg/mL recombinant PDE4B2. The reaction was started by the addition of [3H]cyclic AMP to give a final concentration of 8 nM, and was stopped 20 minutes after the addition of the substrate by the addition of yttrium silicate SPA beads containing 18 mM Zn SO4. Bound [3H]cyclic AMP was measured using a Topcount NXT (Packard Bioscience, UK). pIC50 values (presented in Table 15) were determined using Xlfit3 curve fitting, using model 205.

recombinant Human Phosphodiesterase B2 (PDE4B2), sequence (Q07343 1-564 isoform Q07343-2): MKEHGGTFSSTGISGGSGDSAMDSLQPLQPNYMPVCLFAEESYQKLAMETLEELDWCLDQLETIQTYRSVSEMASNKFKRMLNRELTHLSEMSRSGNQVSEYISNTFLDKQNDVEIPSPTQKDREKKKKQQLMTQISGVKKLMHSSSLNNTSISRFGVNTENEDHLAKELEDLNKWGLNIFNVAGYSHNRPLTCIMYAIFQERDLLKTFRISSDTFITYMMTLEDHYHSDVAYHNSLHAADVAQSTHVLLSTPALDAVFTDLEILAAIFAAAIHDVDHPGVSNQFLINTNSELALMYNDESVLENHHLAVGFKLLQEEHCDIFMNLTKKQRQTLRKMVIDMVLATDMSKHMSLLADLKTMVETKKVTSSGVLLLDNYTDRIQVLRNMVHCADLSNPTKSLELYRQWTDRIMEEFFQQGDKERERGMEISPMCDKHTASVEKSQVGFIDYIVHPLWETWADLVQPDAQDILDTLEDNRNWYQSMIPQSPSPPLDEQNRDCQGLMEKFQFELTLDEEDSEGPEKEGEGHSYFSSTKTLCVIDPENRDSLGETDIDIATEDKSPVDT

Compound	IC50
O=c1c2cc(F)cnc2n(-c2cccc(-c3ccc(O)cc3CN3CCCOCC3)c2)c(=O)n1[C@H]1CC[C@@H](NCc2ncc3ccccn23)CC1 [Example 371, 6-fluoro-1-[4′-hydroxy-2′-(1,4-oxazepan-4-ylmethyl)biphenyl-3-yl]-3-{cis-4-[(imidazo[1,5-a]pyridin-3-ylmethyl)amino]cyclohexyl}pyrido[2,3-d]pyrimidine-2,4(1H,3H)-dione]	0.398 nM
Cc1cc(C(=O)N[C@H]2CC[C@@H](n3c(=O)c4cc(F)cnc4n(-c4cccc(-c5ccc(CN6CCNCC6)cc5)c4)c3=O)CC2)nn1C [Example 228, N-{cis-4-[6-fluoro-2,4-dioxo-1-[4′-(piperazin-1-ylmethyl)biphenyl-3-yl]-1,4-dihydropyrido[2,3-d]pyrimidin-3(2H)-yl]cyclohexyl}-1,5-dimethyl-1H-pyrazole-3-carboxamide]	0.0251 nM
O=C(N[C@H]1CC[C@@H](n2c(=O)c3cc(F)cnc3n(-c3cccc(-c4ccc(CN5CCOCC5)cc4)c3)c2=O)CC1)c1cn2c(n1)CCCC2 [Example 109, N-{cis-4-[6-fluoro-1-[4′-(morpholin-4-ylmethyl)biphenyl-3-yl]-2,4-dioxo-1,4-dihydropyrido[2,3-d]pyrimidin-3(2H)-yl]cyclohexyl}-5,6,7,8-tetrahydroimidazo[1,2-a]pyridine-2-carboxamide]	0.0158 nM
O=Cc1ccc(-c2cccc(-n3c(=O)n([C@H]4CC[C@@H](NC(=O)c5cn6cc(F)ccc6n5)CC4)c(=O)c4cc(F)cnc43)c2)cc1 [Example 24, 6-fluoro-N-{cis-4-[6-fluoro-1-(4′-formylbiphenyl-3-yl)-2,4-dioxo-1,4-dihydropyrido[2,3-d]pyrimidin-3(2H)-yl]cyclohexyl}imidazo[1,2-a]pyridine-2-carboxamide.]	0.00794 nM
O=C(N[C@H]1CC[C@@H](n2c(=O)c3cc(F)cnc3n(-c3cccc(-c4ccc(CN5CCN(CCO)CC5)cc4)c3)c2=O)CC1)c1cn2c(n1)CCCC2 [Example 120, N-{cis-4-[6-fluoro-1-(4′-{[4-(2-hydroxyethyl)piperazin-1-yl]methyl}biphenyl-3-yl)-2,4-dioxo-1,4-dihydropyrido[2,3-d]pyrimidin-3(2H)-yl]cyclohexyl}-5,6,7,8-tetrahydroimidazo[1,2-a]pyridine-2-carboxamide]	0.0316 nM
C[C@@H]1CN(Cc2ccc(-c3cccc(-n4c(=O)n([C@H]5CC[C@@H](NC(=O)c6cc7ccccc7cn6)CC5)c(=O)c5cc(F)cnc54)c3)cc2)C[C@H](C)N1 [Example 304, N-{cis-4-[1-(4′-{[(3R,5S)-3,5-dimethylpiperazin-1-yl]methyl}biphenyl-3-yl)-6-fluoro-2,4-dioxo-1,4-dihydropyrido[2,3-d]pyrimidin-3(2H)-yl]cyclohexyl} isoquinoline-3-carboxamide]	0.0501 nM
O=C(N[C@H]1CC[C@@H](n2c(=O)c3cc(F)cnc3n(-c3cccc(-c4ccc(CN5CCCNCC5)cc4)c3)c2=O)CC1)c1cc(=O)c2ccccc2[nH]1 [Example 355, N-{cis-4-[1-[4′-(1,4-diazepan-1-ylmethyl)biphenyl-3-yl]-6-fluoro-2,4-dioxo-1,4-dihydropyrido[2,3-d]pyrimidin-3(2H)-yl]cyclohexyl}-4-oxo-1,4-dihydroquinoline-2-carboxamide]	0.0501 nM
CNC1CCN(Cc2ccc(-c3cccc(-n4c(=O)n([C@H]5CC[C@@H](NC(=O)c6cn7cc(F)ccc7n6)CC5)c(=O)c5cc(F)cnc54)c3)cc2)CC1 [Example 61, 6-fluoro-N-{cis-4-[6-fluoro-1-(4′-{[4-(methylamino)piperidin-1-yl]methyl}biphenyl-3-yl)-2,4-dioxo-1,4-dihydropyrido[2,3-d]pyrimidin-3(2H)-yl]cyclohexyl}imidazo[1,2-a]pyridine-2-carboxamide]	0.02 nM
O=c1c2cc(F)cnc2n(-c2cccc(-c3ccc(CN4CCOCC4)cc3)c2)c(=O)n1[C@H]1CC[C@@H](NCc2cn3cc(F)ccc3n2)CC1 [Example 76, 6-fluoro-3-(cis-4-{[(6-fluoroimidazo[1,2-a]pyridin-2-yl)methyl]amino}cyclohexyl)-1-[4′-(morpholin-4-ylmethyl)biphenyl-3-yl]pyrido[2,3-d]pyrimidine-2,4(1H,3H)-dione ditrifluoroacetic acid]	0.316 nM

Second part, the molecule after the results:

IC50	Compound
6.31 nM	O=C(N[C@H]1CC[C@@H](n2c(=O)c3cc(F)cnc3n(-c3cccc(-c4ccccc4C(=O)O)c3)c2=O)CC1)c1cn2cc(F)ccc2n1 [Example 60, 3′-[6-fluoro-3-(cis-4-{[(6-fluoroimidazo[1,2-a]pyridin-2-yl)carbonyl]amino}cyclohexyl)-2,4-dioxo-3,4-dihydropyrido[2,3-d]pyrimidin-1(2H)-yl]biphenyl-2-carboxylic acid]
0.00316 nM	CN(C)Cc1cc(O)ccc1-c1cccc(-n2c(=O)n([C@H]3CC[C@@H](NC(=O)c4cn5cc(F)ccc5n4)CC3)c(=O)c3cc(F)cnc32)c1 [Example 104, N-{cis-4-[1-{2′-[(dimethylamino)methyl]-4′-hydroxybiphenyl-3-yl}-6-fluoro-2,4-dioxo-1,4-dihydropyrido[2,3-d]pyrimidin-3(2H)-yl]cyclohexyl}-6-fluoroimidazo[1,2-a]pyridine-2-carboxamide]
0.251 nM	CN(Cc1cc(O)ccc1-c1cccc(-n2c(=O)n([C@H]3CC[C@@H](NCc4cn5cc(F)ccc5n4)CC3)c(=O)c3cc(F)cnc32)c1)C1CC1 [Example 323, 1-(2′-{[cyclopropyl(methyl)amino]methyl}-4′-hydroxybiphenyl-3-yl)-6-fluoro-3-(cis-4-{[(6-fluoroimidazo[1,2-a]pyridin-2-yl)methyl]amino}cyclohexyl)pyrido[2,3-d]pyrimidine-2,4(1H,3H)-dione]
0.00794 nM	Cc1cc(C(=O)N[C@H]2CC[C@@H](n3c(=O)c4cc(F)cnc4n(-c4cccc(-c5ccc(CN6CCOCC6)cc5)c4)c3=O)CC2)nn1C [Example 108, N-{cis-4-[6-fluoro-1-[4′-(morpholin-4-ylmethyl)biphenyl-3-yl]-2,4-dioxo-1,4-dihydropyrido[2,3-d]pyrimidin-3(2H)-yl]cyclohexyl}-1,5-dimethyl-1H-pyrazole-3-carboxamide]
0.00631 nM	O=C(N[C@H]1CC[C@@H](n2c(=O)c3cc(F)cnc3n(-c3cccc(-c4ccc(CN5CCCN(CCO)CC5)cc4)c3)c2=O)CC1)c1cn2c(n1)CCCC2 [Example 222, N-{cis-4-[6-fluoro-1-(4′-{[4-(2-hydroxyethyl)-1,4-diazepan-1-yl]methyl}biphenyl-3-yl)-2,4-dioxo-1,4-dihydropyrido[2,3-d]pyrimidin-3(2H)-yl]cyclohexyl}-5,6,7,8-tetrahydroimidazo[1,2-a]pyridine-2-carboxamide]
0.316 nM	O=C(N[C@H]1CC[C@@H](n2c(=O)c3cc(F)cnc3n(-c3cccc(-c4ccc(F)cc4OCCN4CCNCC4)c3)c2=O)CC1)c1cn2cc(F)ccc2n1 [Example 85, 6-fluoro-N-{cis-4-[6-fluoro-1-[4′-fluoro-2′-(2-piperazin-1-ylethoxy)biphenyl-3-yl]-2,4-dioxo-1,4-dihydropyrido[2,3-d]pyrimidin-3(2H)-yl]cyclohexyl}imidazo[1,2-a]pyridine-2-carboxamide]
0.794 nM	CN(C)Cc1cc(O)ccc1-c1cccc(-n2c(=O)n([C@H]3CC[C@@H](NCc4cn5cc(F)ccc5n4)CC3)c(=O)c3cc(F)cnc32)c1 [Example 277, 1-{2′-[(dimethylamino)methyl]-4′-hydroxybiphenyl-3-yl}-6-fluoro-3-(cis-4-{[(6-fluoroimidazo[1,2-a]pyridin-2-yl)methyl]amino}cyclohexyl)pyrido[2,3-d]pyrimidine-2,4(1H,3H)-dione]
0.0794 nM	O=C(N[C@H]1CC[C@@H](n2c(=O)c3cc(F)cnc3n(-c3cccc(-c4ccc(F)cc4O)c3)c2=O)CC1)c1cn2cc(F)ccc2n1 [Example 80, 6-fluoro-N-{cis-4-[6-fluoro-1-(4′-fluoro-2′-hydroxybiphenyl-3-yl)-2,4-dioxo-1,4-dihydropyrido[2,3-d]pyrimidin-3(2H)-yl]cyclohexyl}imidazo[1,2-a]pyridine-2-carboxamide]
0.00794 nM	Cc1cc(C(=O)N[C@H]2CC[C@@H](n3c(=O)c4cc(F)cnc4n(-c4cccc(-c5ccc(CN6CCN(C(C)C)CC6)cc5)c4)c3=O)CC2)nn1C [Example 114, N-{cis-4-[6-fluoro-1-{4′-[(4-isopropylpiperazin-1-yl)methyl]biphenyl-3-yl}-2,4-dioxo-1,4-dihydropyrido[2,3-d]pyrimidin-3(2H)-yl]cyclohexyl}-1,5-dimethyl-1H-pyrazole-3-carboxamide]
2 nM	O=C(CN1CCCCC1)N[C@H]1CC[C@@H](n2c(=O)c3cc(F)cnc3n(-c3cccc(-c4ccc(O)cc4CN4CCOCC4)c3)c2=O)CC1 [Example 333, N-{cis-4-[6-fluoro-1-[4′-hydroxy-2′-(morpholin-4-ylmethyl)biphenyl-3-yl]-2,4-dioxo-1,4-dihydropyrido[2,3-d]pyrimidin-3(2H)-yl]cyclohexyl}-2-piperidin-1-ylacetamide]
0.2 nM	CN(C)CCCOc1cc(F)ccc1-c1cccc(-n2c(=O)n([C@H]3CC[C@@H](NC(=O)c4cn5cc(F)ccc5n4)CC3)c(=O)c3cc(F)cnc32)c1 [Example 84, N-{cis-4-[1-{2′-[3-(dimethylamino)propoxy]-4′-fluorobiphenyl-3-yl}-6-fluoro-2,4-dioxo-1,4-dihydropyrido[2,3-d]pyrimidin-3(2H)-yl]cyclohexyl}-6-fluoroimidazo[1,2-a]pyridine-2-carboxamide]
